According to patent US6624317B1, “Taxoid conjugates as antimitotic and antitumor agents” (priority 2000, dated 2003):

Experiments:
renal cancer (CAKI-1) = test: in vitro cytotoxicity assay, CAKI-1; conditions: read-out: Cytotoxicity (ED50) CAKI-1; CAKI-1; drug exposure 3 days
Experimental: (§1) Biological Assay. The in vitro cytotoxicity assay was carried out according to procedures described in Rubinstein et al. (P. Ferguson et al., Cancer Res. 1988, 48, 5956-5964). […] The human tumor cell line panel consisted of epiderimoid carcinoma of the nasopharynx (KB), lung carcinoma (A-549), ileocecal carcinoma (HCT-8), renal cancer (CAKI-1), breast cancer (MCF-7), melanoma cancer (SKMEL-2), and ovarian cancer (1A9). The drug resistant cell line panel consisted of three KB-derivatives, -7d, -CPT, and -VCR. The properties of these cells are described elsewhere (P. Ferguson et al., Cancer Res. 1988, 48, 5956-5964; D. Beidler et al., Cancer Res. 1996, 56, 345-353). […] They were a generous gift of Dr. P. Giannakakou (P. Giannakakou et al., J. Biol. Chem. 1997, 27, 17118-17125). Cells were cultured at 37° C. in RPMI-1640 with 100 ug/mL kanamycin and 10% (v/v) fetal bovine serum in a humidified atmosphere containing 5% CO2. Initial seeding densities varied among the cell lines to ensure a final absorbance of 1-2.5 A562 units. Drug exposure was for 3 days, and the ED50 value, the drug concentration that reduced the absorbance by 50%, was interpolated from dose-response data.

[1] = system: melanoma cancer (SKMEL-2); test: in vitro cytotoxicity assay, SK-MEL-2; conditions: read-out: Cytotoxicity (ED50) SK-MEL-2; SK-MEL-2; drug exposure 3 days; NA = not active
Experimental: as §1

[2] = system: epiderimoid carcinoma of the nasopharynx (KB); test: in vitro cytotoxicity assay, KB; assay type: cell-based, human; conditions: drug exposure 3 days
Experimental: as §1

renal cell lines = test: NCI human tumor cell lines, renal; assay type: cell-based; conditions: average over all cell lines of the tumor type; data provided by the NCI
Colon cell lines = test: NCI human tumor cell lines, colon; assay type: cell-based; conditions: average over all cell lines of the tumor type; data provided by the NCI
ovarian cell lines = test: NCI human tumor cell lines, ovarian; assay type: cell-based; conditions: average over all cell lines of the tumor type; data provided by the NCI
[3] = system: Non-small cell lung cancer cell lines; test: NCI human tumor cell lines, NSCL; assay type: cell-based; conditions: average over all cell lines of the tumor type; data provided by the NCI
breast cell lines = test: NCI human tumor cell lines, breast; assay type: cell-based; conditions: average over all cell lines of the tumor type; data provided by the NCI
lung carcinoma (A-549) = test: in vitro cytotoxicity assay, A549; conditions: read-out: Cytotoxicity (ED50) A549; A549; drug exposure 3 days; NA = not active
Experimental: as §1

[4] = system: approximately 60 human tumor cell lines; test: NCI cytotoxicity evaluation in approximately 60 human tumor cell lines (overall); assay type: cell-based; conditions: especially leukemia, colon, and prostate cell lines
[5] = system: Central nervous system cancer cell lines; test: NCI human tumor cell lines, CNS; assay type: cell-based; conditions: average over all cell lines of the tumor type; data provided by the NCI
[6] = system: Cellular protein-DNA complex formation; test: Protein-linked DNA break assay (cellular protein-DNA complex formation); assay type: cell-based; conditions: for Cellular protein-DNA complex formation: Etoposide given as 100, NA^1 not active at 50 uM, NA^2 not active at 100 uM
From the text: (§2) Protein-Linked DNA Break and Topoisomerase 11 Activity Assays. The procedures were done according to detailed published methods (K. Bastow et al., Bioorg. Med. Chem. 1997, 5, 1481-1488).

PAX-10 = test: cytotoxicity in paclitaxel-resistant 1A9 sub-line PAX-10; assay type: cell-based, human; conditions: PAX-10 paclitaxel-resistant 1A9 sub-line
Experimental: as §1
(§3) The newly synthesized taxoid-4′-O-demethyl epipodophyllotoxin conjugates were evaluated in house using standard cytotoxicity assays in human tumor (HTCL) and drug-resistant (DRCL) cell lines. Reference compounds were paclitaxel (1), cephalomannine (2), and epipodophyllotoxins [etoposide (5) and GL-331 (7), see FIG. 1]. The HTCL panel was comprised of KB, A549, HCT-8, CAKI-1, MCF-7, SK-MEL-2, and 1A9 cell lines. Two paclitaxel-resistant 1A9 sub-lines designated as PAX-10 and PAX-22 were also tested as part of the DRCL panel. Other resistant-cell lines were KB derivatives expressing various mechanisms or multi-drug resistance as described elsewhere (P. Ferguson et al., Cancer Res. 1988, 48, 5956-5964; D. Beidler et al., Cancer Res. 1996, 56, 345-353).

KB-VCR = test: cytotoxicity in drug resistant cell line KB-VCR; assay type: cell-based, human; conditions: KB-VCR drug resistant KB derivative
Experimental: as §1, §3

melanoma cell lines = test: NCI human tumor cell lines, melanoma; assay type: cell-based; conditions: average over all cell lines of the tumor type; data provided by the NCI
prostate cell lines = test: NCI human tumor cell lines, prostate; assay type: cell-based; conditions: average over all cell lines of the tumor type; data provided by the NCI
PAX-22 = test: cytotoxicity in paclitaxel-resistant 1A9 sub-line PAX-22; assay type: cell-based, human; conditions: PAX-22 paclitaxel-resistant 1A9 sub-line
Experimental: as §1, §3

[7] = system: paclitaxel resistant cells; test: cytotoxicity against paclitaxel resistant cells (overall); assay type: cell-based, human; conditions: compared with the unconjugated components, Table 3
Experimental: as §1, §3

leukemia cell lines = test: NCI human tumor cell lines, leukemia; assay type: cell-based; conditions: average over all cell lines of the tumor type; data provided by the NCI
ovarian cancer (1A9) = test: in vitro cytotoxicity assay, 1A9; conditions: read-out: Cytotoxicity (ED50) 1A9 (OVCAR); 1A9 (OVCAR); drug exposure 3 days
Experimental: as §1

KB-7d = test: cytotoxicity in drug resistant cell line KB-7d; assay type: cell-based, human; conditions: KB-7d drug resistant KB derivative
Experimental: as §1, §3

Topoisomerase II = Topoisomerase II activity assay (inhibition of topo II in vitro); assay type: biochemical; conditions: NA^1 not active at 50 uM, NA^2 not active at 100 uM
From the text: as §2

KB-CPT = test: cytotoxicity in drug resistant cell line KB-CPT; assay type: cell-based, human; conditions: KB-CPT drug resistant KB derivative
Experimental: as §1, §3

[8] = system: ileocecal carcinoma (HCT-8); test: in vitro cytotoxicity assay, HCT-8; conditions: read-out: Cytotoxicity (ED50) HCT-8; HCT-8; drug exposure 3 days; NA = not active
Experimental: as §1

breast cancer (MCF-7) = test: in vitro cytotoxicity assay, MCF-7; conditions: read-out: Cytotoxicity (ED50) MCF-7; MCF-7; drug exposure 3 days
Experimental: as §1

[9] = system: human tumor (HTCL) cell lines; test: standard cytotoxicity assays in human tumor cell lines (HTCL panel, overall); conditions: summary of Table 2
Experimental: as §1
The newly synthesized taxoid-4′-O-demethyl epipodophyllotoxin conjugates were evaluated in house using standard cytotoxicity assays in human tumor (HTCL) and drug-resistant (DRCL) cell lines. […]

In the case of `COc1cc([C@@H]2c3cc4c(cc3[C@@H](N=Cc3ccc(C(=O)O[C@@H](C(=O)O[C@H]5C[C@@]6(O)[C@@H](OC(=O)c7ccccc7)[C@@H]7[C@]8(OC(C)=O)CO[C@@H]8C[C@H](O)[C@@]7(C)C(=O)[C@H](OC(C)=O)C(=C5C)C6(C)C)[C@@H](NC(=O)c5ccccc5)c5ccccc5)cc3)[C@H]3COC(=O)[C@H]23)OCO4)cc(OC)c1O` [Compound 12], the EC50 (renal cancer (CAKI-1)) is reported as over 250 nM, the EC50 [1] is reported as over 400 nM and the “Cytotoxicity (ED50) KB” value [2] is reported as 3 nM. The “log GI50 renal” value (renal cell lines) was −6.13, the “log GI50 Colon” value (Colon cell lines) was −7.20 and the “log GI50 ovarian” value (ovarian cell lines) was −6.55. For the same molecule, the “log GI50 NSCL” value [3] was −6.58, the “log GI50 breast” value (breast cell lines) was −6.56 and the EC50 (lung carcinoma (A-549)) was 210 nM. The “inhibitory effects against NCI tumor cell lines (in words)” value [4] was “strongest inhibitory effects against a variety of tumor cell lines”, the “log GI50 CNS” value [5] was −6.93 and the “Cellular protein-DNA complex formation” value [6] was 8 +/− 2%. For the same molecule, the “intracellular poisoning / stimulation of protein-DNA breaks in cells (in words)” value [6] was “intracellular poisons”, the “Resistance Fold PAX-10” value (PAX-10) was 7 and the “Resistance Fold KB-VCR” value (KB-VCR) was 17. For the same molecule, the “log GI50 melanoma” value (melanoma cell lines) was −6.29, the “log GI50 prostate” value (prostate cell lines) was −7.22 and the “Resistance Fold PAX-22” value (PAX-22) was 17. For the same molecule, the “activity against paclitaxel resistant cells (in words)” value [7] was “enhanced activity against paclitaxel resistant cells”, the “log GI50 leukemia” value (leukemia cell lines) was −7.60 and the EC50 (ovarian cancer (1A9)) was 30 nM. For the same molecule, the “Resistance Fold KB-7d” value (KB-7d) was 1, the “Inhibition of Topo II IC100” value (Topoisomerase II) was 100 µM and the “Resistance Fold KB-CPT” value (KB-CPT) was 1. It also gave an EC50 [8] of 540 nM and an EC50 (breast cancer (MCF-7)) of 330 nM.

In the case of `COc1cc([C@@H]2c3cc4c(cc3[C@@H](Nc3ccc(N=Cc5ccc(C(=O)O[C@@H](C(=O)O[C@H]6C[C@@]7(O)[C@@H](OC(=O)c8ccccc8)[C@@H]8[C@]9(OC(C)=O)CO[C@@H]9C[C@H](O)[C@@]8(C)C(=O)[C@H](OC(C)=O)C(=C6C)C7(C)C)[C@@H](NC(=O)c6ccccc6)c6ccccc6)cc5)cc3)[C@H]3COC(=O)[C@H]23)OCO4)cc(OC)c1O` [Compound 15], the EC50 (renal cancer (CAKI-1)) is reported as over 4000 nM, the EC50 [1] is reported as over 40000 nM and the “Cytotoxicity (ED50) KB” value [2] is reported as 230 nM. For the same molecule, the “log GI50 Colon” value (Colon cell lines) was −5.12, the “log GI50 ovarian” value (ovarian cell lines) was −4.95 and the “log GI50 NSCL” value [3] was −5.50. For the same molecule, the EC50 (lung carcinoma (A-549)) was 2800 nM, the “log GI50 CNS” value [5] was −5.54 and the “Cellular protein-DNA complex formation” value [6] was 25 +/− 11%. The “intracellular poisoning / stimulation of protein-DNA breaks in cells (in words)” value [6] was “intracellular poisons”, the “cytotoxicity in human tumor cell lines (in words)” value [9] was “exhibited different cytotoxic activity from both precursors” and the “Resistance Fold PAX-10” value (PAX-10) was over 17. For the same molecule, the “Resistance Fold KB-VCR” value (KB-VCR) was 8, the “log GI50 melanoma” value (melanoma cell lines) was −5.01 and the “log GI50 prostate” value (prostate cell lines) was −5.06. The “Resistance Fold PAX-22” value (PAX-22) was 8, the “activity against paclitaxel resistant cells (in words)” value [7] was “enhanced activity against paclitaxel resistant cells” and the “log GI50 leukemia” value (leukemia cell lines) was −6.02. The EC50 (ovarian cancer (1A9)) was 300 nM, the “Resistance Fold KB-7d” value (KB-7d) was 1 and the “Inhibition of Topo II IC100” value (Topoisomerase II) was 100 µM. For the same molecule, the “Resistance Fold KB-CPT” value (KB-CPT) was 1, the EC50 [8] was over 100 nM and the EC50 (breast cancer (MCF-7)) was 1860 nM.
